In paper PMC5674027 (Scientific Reports, 2017):

Key:
[1] = target: interaction between claudin-4 and C-CPE (Homo sapiens, UniProt O14493); assay: biochemical; assay type: binding
[2] = tested on: various human cancer cell lines; settings: cited from earlier work
melanoma cells = settings: cited from earlier work
claudin-1 [3] = assay type: cell-based, human; settings: n = 3
claudin-4 [4] = assay type: cell-based, human; settings: n = 3
claudin-1 [5] = assay type: cell-based, human; settings: 100 µM, 24 h
claudin-4 [6] = assay type: cell-based, human; settings: 100 µM, 24 h
[7] = tested on: claudin-3 (HT1080/CLDN3 cells); assay type: cell-based
CLDN1 = assay type: cell-based, human; settings: n = 3
occludin = assay type: cell-based, human; settings: 100 µM, 24 h
Caco-2 cell monolayer = assay type: cell-based, human
Method: Caco-2 cells were allowed to differentiate for 10 to 14 days on Transwell filters (diameter, 6.5 mm; pore size, 0.4 µm; Corning, Corning, MA, USA) before their use in TER and paracellular flux assays. Caco-2 cell monolayers had TER values of 600–800 Ω•cm^2. TER values were measured by using a Millicell-ERS epithelial volt–ohm meter (Millipore Corporation, Billerica, MA, USA). For the paracellular tracer flux assay, 100 µM dialysed FD-4 was added to the medium in the upper chamber. After 1 h of incubation, the medium was collected from the bottom chamber, and the amount of FD-4 was measured with a TriStar LB 941 microplate reader (Berthold Technologies).

[8] = tested on: claudin-4 (HT1080/CLDN4 cells); assay type: cell-based
claudin-3 = assay type: cell-based, human; settings: n = 3
ZO-1 = assay type: cell-based, human; settings: 100 µM, 24 h
Caco-2 cell monolayers = assay type: cell-based, human; settings: 100 µM thiostrepton, apical sulfo-NHS-SS-biotin (606.7 Da) 10 min; Caco-2 monolayer
Method: Figure 5 Thiostrepton effect on paracellular tracer permeability. Caco-2 cell monolayers were treated with 100 µM thiostrepton or left untreated (control) and then apically incubated with sulfo-NHS-SS-biotin (606.7 Da; red) and counterstained with anti-ZO-1 antibody (green; TJ stain) and DAPI (blue; nuclear stain). […] Bar = 10 µm.
Localisation of claudins-1 and -4, occludin and ZO-1 on Caco-2 cells was assessed by immunofluorescence microscopy. Caco-2 cells were seeded on Transwell filters (diameter, 12 mm; pore size, 0.4 µm; Corning). After treatment with thiostrepton (100 µM) or no treatment for 24 h, the Caco-2 cells were fixed with methanol–acetone (1:1 v/v) for 5 min and then permeabilised with 0.2% Triton X-100 in PBS for 10 min. After non-specific binding had been blocked by incubation with 1% BSA in TBS buffer (20 mM Tris-HCl, pH 7.4, 40 mM NaCl) containing 0.05% Tween-20 (T-TBS) for 1 h, the cells were incubated with anti-claudin-1, -claudin-4, -occludin and -ZO-1 antibodies in 1% BSA in T-TBS for 1 h. After incubation of the cells with fluorescent secondary antibodies for 1 h, the immunofluorescence images were observed under an immunofluorescence microscope (Keyence, Tokyo, Japan). For visualisation of biotin passing through the TJ, Caco-2 cells treated with 100 µM thiostrepton or left untreated were apically labelled with sulfo-NHS-SS-biotin (606.7 Da) for 10 min. […]

C-CPE = assay type: binding, Clostridium perfringens
CLDN4 = assay type: cell-based, human; settings: n = 3
rat jejunum [9] = settings: in vivo
rat jejunum [10] = assay type: in vivo; settings: n = 4
CLDN3 = assay type: cell-based, human; settings: n = 3
breast cancer cells = settings: cited from earlier work
[11] = target: recombinant human claudin-4 protein (Homo sapiens, UniProt O14493); assay: biochemical; assay type: binding
Caco-2 cells = assay type: cell-based, human; settings: 1–100 µM, 24 h; n = 3
Method: For analysis of thiostrepton-induced cytotoxicity on Caco-2 cells, a lactate dehydrogenase (LDH) release assay was performed according to the manufacturer’s instructions. After being treated with thiostrepton for 24 h, the level of LDH released into the culture medium was analysed. Treatment with 0.2% Tween-20 was used as a 100% lysis control. Absorbance was measured at a wavelength of 570 nm by using a TriStar LB 941 microplate reader (Berthold Technologies).

interaction between claudin-4 and C-CPE, sequence (O14493 whole entry, looked up): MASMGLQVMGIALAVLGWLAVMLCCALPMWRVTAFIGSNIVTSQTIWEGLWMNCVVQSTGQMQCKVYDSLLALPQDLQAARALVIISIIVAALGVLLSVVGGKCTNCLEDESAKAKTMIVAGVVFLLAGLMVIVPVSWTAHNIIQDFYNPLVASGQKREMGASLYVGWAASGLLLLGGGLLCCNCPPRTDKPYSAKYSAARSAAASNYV
recombinant human claudin-4 protein, sequence (O14493 whole entry): as the sequence (O14493 whole entry, looked up) above

C=C(NC(=O)C(=C)NC(=O)c1csc(C2=N[C@@H]3c4csc(n4)[C@H]4NC(=O)c5csc(n5)[C@H]([C@](C)(O)[C@@H](C)O)NC(=O)[C@H]5CSC(=N5)/C(=C/C)NC(=O)[C@H]([C@@H](C)O)NC(=O)c5csc(n5)[C@]3(CC2)NC(=O)[C@H](C)NC(=O)C(=C)NC(=O)[C@H](C)NC(=O)[C@H]([C@@H](C)CC)N[C@@H]2C=Cc3c([C@H](C)O)cc(nc3[C@H]2O)C(=O)O[C@@H]4C)n1)C(N)=O [Thiostrepton]
IC50 [1]: 1.02 µM
TR-FRET (% of control), inhibition of TR-FRET signal by interaction between claudin-4 and C-CPE [1]: 66.24 % of control
anti-tumour activity [2]: shows anti-tumour activity in various human cancer cell lines
effect on melanoma cells (melanoma cells): suppresses cell growth and induces apoptosis
claudin-1 protein, 1% Triton-X-insoluble fraction (claudin-1 [3]): unchanged
claudin-1 protein, 1% Triton-X-soluble fraction (claudin-1 [3]): significantly decreased
claudin-4 protein, 1% Triton-X-insoluble fraction (claudin-4 [4]): increased
claudin-4 protein, 1% Triton-X-soluble fraction (claudin-4 [4]): increased
cellular localisation of claudin-1 (claudin-1 [5]): did not alter the cellular localisation
cellular localisation of claudin-4 (claudin-4 [6]): did not alter the cellular localisation
inhibition of C-CPE interaction with claudin-3 [7]: inhibited the interaction between C-CPE and claudin-3, but this effect was substantially weaker than that for claudin-4
claudin-1 mRNA level (CLDN1): significantly decreased
cellular localisation of occludin (occludin): did not alter the cellular localisation
TER (%) (Caco-2 cell monolayer; 10 µM, 24 h, percentage of the TER value at 0 h): 55.2%
attenuation of barrier function of Caco-2 cells, comparison among hits (Caco-2 cell monolayer; among the hit compounds, Supplementary Figure 4, 10 µM, 24 h): greatest attenuation of the barrier function of Caco-2 cells
paracellular flux of FD-4 (Caco-2 cell monolayer; thiostrepton 1–100 µM, 24 h, Caco-2 apical to basal, 100 µM FD-4 1 h, fluorescence plate reader, n = 3): dose-dependent increase in the paracellular flux of FD-4
effect on TER value of Caco-2 cells (Caco-2 cell monolayer; thiostrepton 1–100 µM, 12, 18, 24 h, then 24 h after medium change, n = 3): reversibly decreased the TER value of Caco-2 cells in a time- and dose-dependent manner
inhibition of C-CPE binding to claudin-4 on the cell membrane [8]: inhibited the binding of C-CPE to claudin-4 on the cell membrane
claudin-3 protein, 1% Triton-X-insoluble fraction (claudin-3): unchanged
claudin-3 protein, 1% Triton-X-soluble fraction (claudin-3): significantly decreased
cellular localisation of ZO-1 (ZO-1): did not alter the cellular localisation
biotin permeation (Caco-2 cell monolayers): biotin signal was detected within the paracellular space
binding to C-CPE (C-CPE): did not bind to C-CPE
claudin-4 mRNA level (CLDN4): increased
intestinal tissue toxicity (histochemical analysis) (rat jejunum [9]): no evidence of intestinal tissue toxicity
maximum plasma FD-4 concentration (rat jejunum [10]): 0.6 µg/mL
rat jejunal absorption of FD-4 (rat jejunum [10]): enhanced rat jejunal absorption of FD-4 in a dose-dependent manner
claudin-3 mRNA level (CLDN3): significantly decreased
effect on breast cancer cells (breast cancer cells): leads to cell-cycle arrest and cell death by down-regulating FOXM1 gene expression
Kd [11]: 6.62 µM
cytotoxicity to Caco-2 cells (LDH release) (Caco-2 cells): not cytotoxic to Caco-2 cells in the concentration range of 1–100 µM
